According to patent US20160038468A1 (priority 2013, published 2016):
Where two headings read alike, the source gives them in different places.

Tests used:
Assay type in all cases: cell-based
Prevotella amnii = experiment: Agar dilution MIC (CLSI), Prevotella amnii vaginal isolates; settings: for Number of strains with indicated MIC: 33 samples; for MIC: read-out: Minimal Inhibitory Concentration (MIC)
Peptoniphilus lacrimalis = experiment: Agar dilution MIC (CLSI), Peptoniphilus lacrimalis vaginal isolates; settings: for Number of strains with indicated MIC: 20 samples; for MIC: read-out: Minimal Inhibitory Concentration (MIC)
Prevotella bivia = experiment: Agar dilution MIC (CLSI), Prevotella bivia vaginal isolates; settings: for Number of strains with indicated MIC: 34 samples; for MIC: read-out: Minimal Inhibitory Concentration (MIC)
[1] = Peptoniphilus lacrimalis, # tested 20

CCC[C@@H]1C[C@@H](C(=O)N[C@@H]([C@H]2O[C@H](SC)[C@H](O)[C@@H](O)[C@H]2O)[C@H](C)Cl)N(C)C1 [Clindamycin]
25: Number of strains with indicated MIC (Prevotella bivia; MIC >[…])
8: Number of strains with indicated MIC (Prevotella bivia; MIC 0.03 μg/ml)
0.125 µg/mL: MIC (Peptoniphilus lacrimalis; Peptoniphilus lacrimalis, isolate 601060V 32A) | MIC (Peptoniphilus lacrimalis; Peptoniphilus lacrimalis, isolate 601078V O) | MIC (Peptoniphilus lacrimalis; Peptoniphilus lacrimalis, isolate 601084V c) | MIC (Peptoniphilus lacrimalis; Peptoniphilus lacrimalis, isolate 601365V 13)
0.25 µg/mL: MIC (Peptoniphilus lacrimalis; Peptoniphilus lacrimalis, isolate 601255V 12) | MIC (Peptoniphilus lacrimalis; Peptoniphilus lacrimalis, isolate 601293V 15) | MIC (Peptoniphilus lacrimalis; Peptoniphilus lacrimalis, isolate 601305V K-1) | MIC (Peptoniphilus lacrimalis; Peptoniphilus lacrimalis, isolate 601330V H) | MIC (Peptoniphilus lacrimalis; Peptoniphilus lacrimalis, isolate 601336V 47) | MIC (Peptoniphilus lacrimalis; Peptoniphilus lacrimalis, isolate 601368V 39) | MIC (Peptoniphilus lacrimalis; Peptoniphilus lacrimalis, isolate 601375V E) | MIC (Peptoniphilus lacrimalis; Peptoniphilus lacrimalis, isolate 601388V B) | MIC (Peptoniphilus lacrimalis; Peptoniphilus lacrimalis, isolate 601401V I) | MIC50 (Peptoniphilus lacrimalis; [1])
32 (97) μg/ml: Susceptible (Prevotella amnii; number (%) of isolates, # tested 33)
0.03 µg/mL: MIC (Prevotella amnii; Prevotella amnii, isolate 601203 4) | MIC (Prevotella amnii; Prevotella amnii, isolate 601256 11) | MIC (Prevotella amnii; Prevotella amnii, isolate 601258 25) | MIC (Prevotella amnii; Prevotella amnii, isolate 601261 E) | MIC (Prevotella amnii; Prevotella amnii, isolate 601266 20) | MIC (Prevotella amnii; Prevotella amnii, isolate 601278 10) | MIC (Prevotella amnii; Prevotella amnii, isolate 601287 HH) | MIC (Prevotella amnii; Prevotella amnii, isolate 601291 41) | MIC (Prevotella amnii; Prevotella amnii, isolate 601293 29) | MIC (Prevotella amnii; Prevotella amnii, isolate 601305 A) | MIC (Prevotella amnii; Prevotella amnii, isolate 601311 K) | MIC (Prevotella amnii; Prevotella amnii, isolate 601314 19) | MIC (Prevotella amnii; Prevotella amnii, isolate 601318 G) | MIC (Prevotella amnii; Prevotella amnii, isolate 601336 33) | MIC (Prevotella amnii; Prevotella amnii, isolate 601341 H) | MIC (Prevotella amnii; Prevotella amnii, isolate 601350 A) | MIC (Prevotella amnii; Prevotella amnii, isolate 601365 6) | MIC (Prevotella amnii; Prevotella amnii, isolate 601368 24) | MIC (Prevotella amnii; Prevotella amnii, isolate 601369 13) | MIC (Prevotella amnii; Prevotella amnii, isolate 601375 L) | MIC (Prevotella amnii; Prevotella amnii, isolate 601377 9) | MIC (Prevotella amnii; Prevotella amnii, isolate 601379 24) | MIC (Prevotella amnii; Prevotella amnii, isolate 601388 G) | MIC (Prevotella amnii; Prevotella amnii, isolate 601399 10) | MIC (Prevotella amnii; Prevotella amnii, isolate 601405 A) | MIC (Prevotella amnii; Prevotella amnii, isolate 601411 L) | MIC (Prevotella amnii; Prevotella amnii, isolate 601413 10) | MIC (Prevotella amnii; Prevotella amnii, isolate 601418 27) | MIC (Prevotella amnii; Prevotella amnii, isolate 601426 A) | MIC (Prevotella amnii; Prevotella amnii, isolate 601430 14) | MIC (Prevotella amnii; Prevotella amnii, isolate 601434 13) | MIC (Prevotella amnii; Prevotella amnii, isolate 601458 13) | MIC50 (Prevotella amnii; Prevotella amnii, # tested 33) | MIC90 (Prevotella amnii; Prevotella amnii, # tested 33) | MIC (Prevotella bivia; Prevotella bivia, isolate 601203 5) | MIC (Prevotella bivia; Prevotella bivia, isolate 601212 9) | MIC (Prevotella bivia; Prevotella bivia, isolate 601293 22) | MIC (Prevotella bivia; Prevotella bivia, isolate 601367 M) | MIC (Prevotella bivia; Prevotella bivia, isolate 601388 T) | MIC (Prevotella bivia; Prevotella bivia, isolate 601389 J) | MIC (Prevotella bivia; Prevotella bivia, isolate 601409 V) | MIC (Prevotella bivia; Prevotella bivia, isolate 601410 12)
8 µg/mL: MIC (Peptoniphilus lacrimalis; Peptoniphilus lacrimalis, isolate 601318V E)
32: Number of strains with indicated MIC (Prevotella amnii; MIC 0.03 μg/ml)
6 (30) μg/ml: Resistant (Peptoniphilus lacrimalis; number (%) of isolates, # tested 20, resistance: rifaximin >32, metronidazole >32, clindamycin >8 μg/ml)
14 (70) μg/ml: Susceptible (Peptoniphilus lacrimalis; number (%) of isolates, # tested 20)
1: Number of strains with indicated MIC (Prevotella amnii; MIC […]) | Number of strains with indicated MIC (Peptoniphilus lacrimalis; MIC 0.06 μg/ml) | Number of strains with indicated MIC (Peptoniphilus lacrimalis; MIC 8 μg/ml) | Number of strains with indicated MIC (Prevotella bivia; MIC 0.06 μg/ml)
>128 µg/mL: Minimal Inhibitory Concentration (MIC) (Peptoniphilus lacrimalis; isolate 601261V O) | Minimal Inhibitory Concentration (MIC) (Peptoniphilus lacrimalis; isolate 601296V N) | Minimal Inhibitory Concentration (MIC) (Prevotella bivia; isolate 601096 25) | Minimal Inhibitory Concentration (MIC) (Prevotella bivia; isolate 601166 M) | Minimal Inhibitory Concentration (MIC) (Prevotella bivia; isolate 601202 21) | Minimal Inhibitory Concentration (MIC) (Prevotella bivia; isolate 601213 9A) | Minimal Inhibitory Concentration (MIC) (Prevotella bivia; isolate 601214 B) | Minimal Inhibitory Concentration (MIC) (Prevotella bivia; isolate 601241 13)
0.06 µg/mL: MIC (Peptoniphilus lacrimalis; Peptoniphilus lacrimalis, isolate 601105V 13) | MIC (Prevotella bivia; Prevotella bivia, isolate 601355 B)
0.03 to 128 µg/mL: MIC Range (Prevotella amnii; # tested 33)
1 (3) μg/ml: Resistant (Prevotella amnii; number (%) of isolates, # tested 33, resistance: rifaximin >32, metronidazole >32, clindamycin >8 μg/ml)
128 µg/mL: MIC (Prevotella amnii; Prevotella amnii, isolate 601340 37) | MIC (Peptoniphilus lacrimalis; Peptoniphilus lacrimalis, isolate 601028V 27A) | MIC (Peptoniphilus lacrimalis; Peptoniphilus lacrimalis, isolate 601139V 17)
> 128 µg/mL: MIC (Peptoniphilus lacrimalis; Peptoniphilus lacrimalis) | MIC90 (Peptoniphilus lacrimalis; [1]) | MIC (Prevotella bivia; Prevotella bivia) | MIC50 (Prevotella bivia; Prevotella bivia, # tested 34) | MIC90 (Prevotella bivia; Prevotella bivia, # tested 34)
3: Number of strains with indicated MIC (Peptoniphilus lacrimalis; MIC >[…])
